# Source: patent US20040259082A1
# Experiments:
# Klenow = Klenow (Escherichia coli, UniProt P00582); test: Charged nucleobase (aminoallyl-dUTP) as polymerase substrate; format: biochemical; settings: dATP, dCTP, dGTP plus AA-dUTP
# Protocol: (§1) Arrows indicate the extension products.
# (§2) Charged Nucleobase as a Polymerase Substrate. […] Aminoallyl-dUTP was tested with 4 different polymerases.
# Taq = Taq (Thermus aquaticus, UniProt P19821); test: as above; format: biochemical; settings: dATP, dCTP, dGTP plus AA-dUTP
# Chain of Taq (P19821 whole entry): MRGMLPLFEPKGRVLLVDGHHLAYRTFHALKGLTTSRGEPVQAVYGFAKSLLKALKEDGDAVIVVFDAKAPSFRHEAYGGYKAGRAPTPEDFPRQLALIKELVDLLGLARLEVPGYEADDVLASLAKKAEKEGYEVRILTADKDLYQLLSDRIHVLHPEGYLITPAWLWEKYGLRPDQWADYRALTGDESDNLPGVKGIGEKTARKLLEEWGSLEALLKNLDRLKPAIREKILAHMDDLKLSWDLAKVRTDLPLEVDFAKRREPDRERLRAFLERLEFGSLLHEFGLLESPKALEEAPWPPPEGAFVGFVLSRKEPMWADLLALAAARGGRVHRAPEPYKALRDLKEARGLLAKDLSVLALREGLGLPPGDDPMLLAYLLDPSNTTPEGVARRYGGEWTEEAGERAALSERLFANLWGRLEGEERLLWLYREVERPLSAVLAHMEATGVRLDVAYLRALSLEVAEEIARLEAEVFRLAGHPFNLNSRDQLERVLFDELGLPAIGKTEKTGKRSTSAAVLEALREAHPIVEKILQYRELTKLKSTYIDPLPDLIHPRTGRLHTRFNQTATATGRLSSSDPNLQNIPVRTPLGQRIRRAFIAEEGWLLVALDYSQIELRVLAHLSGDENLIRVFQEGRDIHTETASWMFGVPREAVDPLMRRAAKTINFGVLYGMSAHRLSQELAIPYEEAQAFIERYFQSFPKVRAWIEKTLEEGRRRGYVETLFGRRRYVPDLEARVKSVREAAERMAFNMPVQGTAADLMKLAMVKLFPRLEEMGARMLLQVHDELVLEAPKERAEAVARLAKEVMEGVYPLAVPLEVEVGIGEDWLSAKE
# Protocol: as §1, §2
# HIV-RT = HIV-RT (Human immunodeficiency virus type 1 group M subtype B, UniProt P03366); test: as above; format: biochemical; settings: dATP, dCTP, dGTP plus AA-dUTP
# Protocol: as §1, §2
# T7 Sequenase 2.0 = T7 Sequenase 2.0 (Escherichia phage T7, UniProt P00581, DEL118-145); settings: dATP, dCTP, dGTP plus AA-dUTP
# Source text: Samples contain dATP, dCTP, dGTP and either dUTP (first lane of each enzyme) or AA-dUTP (second lane each enzyme). Arrows indicate the extension products.
# [1] = Photodegradation and single molecule detection calculation; settings: 60 photons, 0.45% detection efficiency, 13,333 excitations
# [2] = Capillary electrophoresis of unlabeled nucleotides with Mg++; format: physicochemical
# Protocol: FIG. 14 illustrates the effect of Mg^++ on electrophoretic mobility of unlabeled nucleotides.
# Electrophoresis Results. A γ-dNTP (FIG. 13A) with the charge configuration N(0) F(+2) was synthesized and its electrophoretic mobility examined in an agarose gel as a function of Mg^++ concentration (FIG. 13B). As expected (FIG. 12B), its mobility changed from negative to positive with increasing Mg^++, passing through zero at about 3 mM Mg^++. A direct comparison with the calculation (FIG. 12B) is not possible because, while the gels contained the indicated Mg^++ concentrations, the samples (20 μL) loaded in each lane contained 10 mM Mg^++. The importance of attaching a (+2) charge to the γ-label (FIG. 13A) with respect to obtaining a bipolar switch mode (neg to pos) is illustrated by a capillary electrophoresis experiment with unlabeled dTDP and dTTP (FIG. 14). […] It is clear that additional positive charge can be added to the these nucleotides if one desires a negative to positive charge switch. This is what was done with the γ-dNTP of FIG. 13.
# T7 polymerase exo- = molecular target: T1, T7 polymerase exo- (Escherichia phage T7, UniProt P00581, D5A/E7A); test: Steady-state kinetics, Km determination for dTTP; format: biochemical; settings: Lineweaver-Burk plot; 5 sec at 20° C.
# T1 construct: made in house; host or cells: E. coli TOP 10
# HIV-1 RT = HIV-1 RT (Human immunodeficiency virus type 1 group M subtype B, UniProt P03366); settings: 50 μM dATP, dCTP, dGTP; 37° C. for 30 min
# Protocol: FIG. 6 illustrates the utilization of different γ-dNTPs by T7 Sequenase 2.0 and HIV polymerases. Samples contain 50 μM dATP, dCTP, dGTP and either (a) dUTP; (b) γ-dUTP-BodipyTR; (c) γ-dUTP-Fluorescein; or a control (d) omitting dUTP and its analogs. Incubation was at 37° C. for 30 min.
# 18 commercially-available polymerases were screened for the utilization of γ-dUTP-BodipyTR.
smiles,measurement,setting,value
NC/C=C/c1cn([C@H]2C[C@H](O)[C@@H](COP(=O)(O)OP(=O)(O)OP(=O)(O)O)O2)c(=O)[nH]c1=O [Aminoallyl-dUTP],extension product with AA-dUTP,Klenow,stopped at the dUTP incorporation sites
same,extension product with AA-dUTP,Taq,stopped at the dUTP incorporation sites
same,extension product with AA-dUTP,HIV-RT,produced full-length product
same,extension product with AA-dUTP,T7 Sequenase 2.0,produced full-length product
"CN(C)c1ccc2c(-c3ccccc3C(=O)[O-])c3ccc(N(C)C)cc3[o+]c2c1 [TMR, tetramethylrhodamine]",molecules escaping detection due to photodegradation,[1],0.44%
Cc1cn([C@H]2C[C@H](O)[C@@H](COP(=O)(O)OP(=O)(O)O)O2)c(=O)[nH]c1=O [dTDP],charge in presence of Mg++,[2],remained in negative territory
Cc1cn([C@H]2C[C@H](O)[C@@H](COP(=O)(O)OP(=O)(O)OP(=O)(O)O)O2)c(=O)[nH]c1=O [dTTP],charge in presence of Mg++,[2],remained in negative territory
same,Km,T7 polymerase exo-,13 µM
O=c1ccn([C@H]2C[C@H](O)[C@@H](COP(=O)(O)OP(=O)(O)OP(=O)(O)O)O2)c(=O)[nH]1 [dUTP],incorporation of γ-dUTP analogs / dUTP (FIG. 6),HIV-1 RT,synthesized full-length product
